Reference: patent US9540323B2 (BRISTOL-MYERS SQUIBB COMPANY, priority 2012, dated 2017)

How the values were obtained:
[1] = system: human platelet rich plasma (PRP); experiment: ADP induced platelet aggregation assay; settings: Homo sapiens, Platelet, 5 min, read-out: PA IC50 (μM) @ 10 μM ADP, human PRP, 10 μM ADP, AUC at 5 minute
[2] = molecular target: cloned human P2Y1 receptors (Homo sapiens (Human), UniProt P47900); experiment: Binding Assay B - Scintillation Proximity Assay (SPA) for P2Y1 binding, [33P] 2MeS-ADP; settings: SPA, 0.3 nM [33P] 2MeS-ADP, Cheng-Prusoff; read-out: P2Y1 Ki (nM) using binding assay B
Sequence of cloned human P2Y1 receptors (P47900 whole entry): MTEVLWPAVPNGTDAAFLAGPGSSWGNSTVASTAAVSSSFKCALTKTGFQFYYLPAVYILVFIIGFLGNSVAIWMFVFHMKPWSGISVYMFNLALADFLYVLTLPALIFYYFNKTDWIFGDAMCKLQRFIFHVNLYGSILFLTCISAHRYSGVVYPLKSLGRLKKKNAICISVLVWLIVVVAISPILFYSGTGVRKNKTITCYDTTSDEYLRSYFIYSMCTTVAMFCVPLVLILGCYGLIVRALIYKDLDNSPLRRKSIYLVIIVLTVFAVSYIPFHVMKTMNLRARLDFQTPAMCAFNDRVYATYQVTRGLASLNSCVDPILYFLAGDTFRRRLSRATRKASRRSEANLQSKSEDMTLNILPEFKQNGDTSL
Procedure: Binding Assay B—Scintillation Proximity Assay (SPA) for P2Y1 Binding
A SPA membrane binding assay was used to identify inhibitors of [^33P] […] Reactions were allowed to proceed to completion at room temperature for 1 hour followed by centrifugation of the plate for 5 min. About 40 μL of the aqueous solution was aspirated. Plates were sealed and the [^33P]

SMILES	IC50 [1]	Ki [2]
CCC1(CC)CN(c2ccccc2NC(=O)Nc2ccc(OC(F)(F)F)cc2)c2c(O)ccc(C=O)c21 [Example 73, 1-(2-(3,3-Diethyl-4-formyl-7-hydroxyindolin-1-yl)phenyl)-3-(4-(trifluoromethoxy)phenyl)urea]	0.9 µM	4.5 nM
CCOC(=O)C1(C)CN(c2ccccc2NC(=O)Nc2ccc(OC(F)(F)F)cc2)c2c(O)ccc(Cl)c21 (stereo not shown) [Example 74, Ethyl 4-chloro-7-hydroxy-3-methyl-1-(2-(3-(4-(trifluoromethoxy)phenyl)ureido)phenyl)indoline-3-carboxylate]	3.11 µM	19.8 nM
CCOC(=O)C1(C)CN(c2ccccc2NC(=O)Nc2csc(Cl)n2)c2c(O)ccc(Cl)c21 (stereo not shown) [Example 75, Ethyl 4-chloro-1-(2-(3-(2-chlorothiazol-4-yl)ureido)phenyl)-7-hydroxy-3-methylindoline-3-carboxylate]	0.56 µM	7.1 nM
CCOC(=O)C1(C)CN(c2ccccc2NC(=O)Nc2nc3ccc(F)cc3s2)c2c(O)ccc(Cl)c21 (stereo not shown) [Example 76, Ethyl 4-chloro-1-(2-(3-(6-fluorobenzo[d]thiazol-2-yl)ureido)phenyl)-7-hydroxy-3-methylindoline-3-carboxylate]	0.4 µM	11.5 nM
CCOC(=O)C1(C)CN(c2ccccc2NC(=O)Nc2nc3ccc(Cl)nc3s2)c2c(O)ccc(Cl)c21 (stereo not shown) [Example 77, Ethyl 4-chloro-1-(2-(3-(5-chlorothiazolo[5,4-b]pyridin-2-yl)ureido)phenyl)-7-hydroxy-3-methylindoline-3-carboxylate]	0.61 µM	12.9 nM
CC1(CC(F)(F)F)CN(c2ccccc2NC(=O)Nc2ccc(OC(F)(F)F)cc2)c2c(O)ccc(Cl)c21 (stereo not shown) [Example 78, 1-(2-(4-Chloro-7-hydroxy-3-methyl-3-(2,2,2-trifluoroethyl)indolin-1-yl)phenyl)-3-(4-(trifluoromethoxy)phenyl)urea]	2.92 µM	7.7 nM
CC1(C)CN(c2ccccc2NC(=O)Nc2ccc(OC(F)(F)F)cc2)c2c(O)c(F)cc(CC(F)(F)F)c21 [Example 79, 1-(2-(6-Fluoro-7-hydroxy-3,3-dimethyl-4-(2,2,2-trifluoroethyl)indolin-1-yl)phenyl)-3-(4-(trifluoromethoxy)phenyl)urea]	0.83 µM	9.7 nM
COC(=O)c1ccc(O)c2c1C(C)(C)CN2c1ccccc1NC(=O)Nc1ccc(OC(F)(F)F)cc1 [Example 80, Methyl 7-hydroxy-3,3-dimethyl-1-(2-(3-(4-(trifluoromethoxy)phenyl)ureido)phenyl)indoline-4-carboxylate]	0.84 µM	9 nM
CCOC(=O)c1ccc(O)c2c1C(C)(C)CN2c1ccccc1NC(=O)Nc1ccc(OC(F)(F)F)cc1 [Example 81, Ethyl 7-hydroxy-3,3-dimethyl-1-(2-(3-(4-(trifluoromethoxy)-phenyl)-ureido)phenyl)indoline-4-carboxylate]	0.91 µM	8.6 nM
CC1(C)CN(c2ccccc2NC(=O)Nc2ccc(OC(F)(F)F)cc2)c2c(O)ccc(-c3nc4ccccc4o3)c21 [Example 82, 1-(2-(4-(Benzo[d]oxazol-2-yl)-7-hydroxy-3,3-dimethylindolin-1-yl)phenyl)-3-(4-(trifluoromethoxy)phenyl)urea]	0.99 µM	15.8 nM
CC1(C)CN(c2ccccc2NC(=O)Nc2ccc(OC(F)(F)F)cc2)c2c(O)ccc(-c3nc4ccccc4s3)c21 [Example 83]	0.86 µM	14.7 nM
CC1(C)CN(c2ccccc2NC(=O)Nc2ccc(OC(F)(F)F)cc2)c2c(O)ccc(-c3nc4cc(Cl)ccc4o3)c21 [Example 84, 1-(2-(4-(5-Chlorobenzo[d]oxazol-2-yl)-7-hydroxy-3,3-dimethylindolin-1-yl)phenyl)-3-(4-(trifluoromethoxy)phenyl)urea]	0.58 µM	16.7 nM
CC1(C)CN(c2ccccc2NC(=O)Nc2ccc(OC(F)(F)F)cc2)c2c(O)ccc(-c3nc4cc(Cl)ccc4s3)c21 [Example 85, 1-(2-(4-(5-Chlorobenzo[d]thiazol-2-yl)-7-hydroxy-3,3-dimethylindolin-1-yl)phenyl)-3-(4-(trifluoromethoxy)phenyl)urea]	0.38 µM	23.5 nM
Cc1nnc(-c2ccc(O)c3c2C(C)(C)CN3c2ccccc2NC(=O)Nc2ccc(OC(F)(F)F)cc2)o1 [Example 86, 1-(2-(7-Hydroxy-3,3-dimethyl-4-(5-methyl-1,3,4-oxadiazol-2-yl)indolin-1-yl)phenyl)-3-(4-(trifluoromethoxy)phenyl)urea]	5 µM	22.2 nM
CC1(C)CN(c2ccccc2NC(=O)Nc2ccc(OC(F)(F)F)cc2)c2c(O)ccc(-c3nc4cc(C(F)(F)F)ccc4s3)c21 [Example 87]	0.27 µM	42.9 nM
Cn1c(-c2ccc(O)c3c2C(C)(C)CN3c2ccccc2NC(=O)Nc2ccc(OC(F)(F)F)cc2)nc2ccccc21 [Example 88, 1-(2-(7-Hydroxy-3,3-dimethyl-4-(1-methyl-1H-benzo[d]imidazol-2-yl)indolin-1-yl)phenyl)-3-(4-(trifluoromethoxy)phenyl)urea]	4.15 µM	39.7 nM
CC1(C)CN(c2ccccc2NC(=O)Nc2ccc(OC(F)(F)F)cc2)c2c(O)ccc(-c3nc4cccnc4o3)c21 [Example 89, 1-(2-(7-Hydroxy-3,3-dimethyl-4-(oxazolo[5,4-b]pyridin-2-yl)indolin-1-yl)phenyl)-3-(4-(trifluoromethoxy)phenyl)urea]	0.99 µM	12.3 nM
Cc1cccc2oc(-c3ccc(O)c4c3C(C)(C)CN4c3ccccc3NC(=O)Nc3ccc(OC(F)(F)F)cc3)nc12 [Example 90, 1-(2-(7-Hydroxy-3,3-dimethyl-4-(4-methylbenzo[d]oxazol-2-yl)indolin-1-yl)phenyl)-3-(4-(trifluoromethoxy)phenyl)urea]	0.43 µM	56.7 nM
CC1(C)CN(c2ccccc2NC(=O)Nc2ccc(OC(F)(F)F)cc2)c2c(O)ccc(-c3nc4ccc(Cl)cc4o3)c21 [Example 91, 1-(2-(4-(6-Chlorobenzo[d]oxazol-2-yl)-7-hydroxy-3,3-dimethylindolin-1-yl)phenyl)-3-(4-(trifluoromethoxy)phenyl)urea]	0.33 µM	65.1 nM
CC1(C)CN(c2ccccc2NC(=O)Nc2ccc(OC(F)(F)F)cc2)c2c(O)ccc(-c3nc4ccc(F)cc4o3)c21 [Example 92, 1-(2-(4-(6-Fluorobenzo[d]oxazol-2-yl)-7-hydroxy-3,3-dimethylindolin-1-yl)phenyl)-3-(4-(trifluoromethoxy)phenyl)urea]	0.2 µM	36.6 nM
Cc1cccc2nc(-c3ccc(O)c4c3C(C)(C)CN4c3ccccc3NC(=O)Nc3ccc(OC(F)(F)F)cc3)oc12 [Example 93, 1-(2-(7-Hydroxy-3,3-dimethyl-4-(7-methylbenzo[d]oxazol-2-yl)indolin-1-yl)phenyl)-3-(4-(trifluoromethoxy)phenyl)urea]	0.8 µM	52 nM
COc1ccc2nc(-c3ccc(O)c4c3C(C)(C)CN4c3ccccc3NC(=O)Nc3ccc(OC(F)(F)F)cc3)oc2c1 [Example 94, 1-(2-(7-Hydroxy-4-(6-methoxybenzo[d]oxazol-2-yl)-3,3-dimethylindolin-1-yl)phenyl)-3-(4-(trifluoromethoxy)phenyl)urea]	0.48 µM	39.5 nM
Cc1ccc2nc(-c3ccc(O)c4c3C(C)(C)CN4c3ccccc3NC(=O)Nc3ccc(OC(F)(F)F)cc3)oc2c1 [Example 95, 1-(2-(7-Hydroxy-3,3-dimethyl-4-(6-methylbenzo[d]oxazol-2-yl)indolin-1-yl)phenyl)-3-(4-(trifluoromethoxy)phenyl)-urea]	0.46 µM	33.3 nM
CC1(C)CN(c2ccccc2NC(=O)Nc2ccc(OC(F)(F)F)cc2)c2c(O)ccc(-c3nc4cnccc4o3)c21 [Example 96, 1-(2-(7-Hydroxy-3,3-dimethyl-4-(oxazolo[4,5-c]pyridin-2-yl)indolin-1-yl)phenyl)-3-(4-(trifluoromethoxy)phenyl)urea]	2.99 µM	22.2 nM
Cc1noc(-c2ccc(O)c3c2C(C)(C)CN3c2ccccc2NC(=O)Nc2ccc(OC(F)(F)F)cc2)n1 [Example 97, 1-(2-(7-Hydroxy-3,3-dimethyl-4-(3-methyl-1,2,4-oxadiazol-5-yl)indolin-1-yl)phenyl)-3-(4-(trifluoromethoxy)phenyl)urea]	1.52 µM	20.7 nM
CC1(C)CN(c2ccccc2NC(=O)Nc2ccc(OC(F)(F)F)cc2)c2c(O)ccc(-c3nc4cc(F)c(F)cc4o3)c21 [Example 99, 1-(2-(4-(5,6-Difluorobenzo[d]oxazol-2-yl)-7-hydroxy-3,3-dimethylindolin-1-yl)phenyl)-3-(4-(trifluoromethoxy)phenyl)urea]	0.89 µM	28.1 nM
CC1(C)CN(c2ccccc2NC(=O)Nc2nc3ccc(F)cc3s2)c2c(O)ccc(-c3nc4cc(Cl)ccc4s3)c21 [Example 100, 1-(2-(4-(5-Chlorobenzo[d]thiazol-2-yl)-7-hydroxy-3,3-dimethylindolin-1-yl)phenyl)-3-(6-fluorobenzo[d]thiazol-2-yl)urea]	0.27 µM	38.4 nM
CC1(C)CN(c2ccccc2NC(=O)Nc2nc3ccc(F)cc3s2)c2c(O)ccc(-c3nc4ccc(F)cc4o3)c21 [Example 101, 1-(2-(4-(6-Fluorobenzo[d]oxazol-2-yl)-7-hydroxy-3,3-dimethylindolin-1-yl)phenyl)-3-(6-fluorobenzo[d]thiazol-2-yl)urea]	0.67 µM	31.9 nM
Cc1cnc2oc(-c3ccc(O)c4c3C(C)(C)CN4c3ccccc3NC(=O)Nc3ccc(OC(F)(F)F)cc3)nc2c1 [Example 102, 1-(2-(7-Hydroxy-3,3-dimethyl-4-(6-methyloxazolo[5,4-b]pyridin-2-yl)indolin-1-yl)phenyl)-3-(4-(trifluoromethoxy)phenyl)urea]	0.97 µM	11.2 nM
